First: O=C(O)c1cccc(N(CC2CCCCC2)c2nc(-c3cc(Cl)ccc3OCc3ccccc3)cs2)c1 [Example 181, 3-(N-(4-(2-benzyloxy-5-chlorophenyl)-2-thiazolyl)-N-cyclohexylmethylamino)benzoic acid]
Second: O=C(O)c1ccc(CN(CC2CCCCC2)c2nc(-c3nc4ccc(OCc5ccccc5)cc4o3)cs2)cc1 [Example 220, 4-((N-(4-(6-benzyloxy-2-benzooxazolyl)-2-thiazolyl)-N-cyclohexylmethylamino)methyl)benzoic acid]
The melting point of the first is lower: 98 to 100 °C for the first, 117 to 119 °C for the second.

Compared with CCCCN(c1ccc(C(=O)O)cc1)c1nc(-c2cc(Cl)ccc2OCc2ccc(C(F)(F)F)cc2)cs1 [Example 182, 4-(N-butyl-N-(4-(5-chloro-2-(4-trifluoromethylbenzyloxy)phenyl)-2-thiazolyl)amino)benzoic acid], CN(Cc1ccc(C(F)(F)F)cc1)c1ccc(-c2csc(N(C)Cc3ccc(C(=O)O)cc3)n2)cc1 [Example 234, 4-((N-methyl-N-(4-(4-(N-methyl-N-(4-trifluoromethylbenzyl)amino)phenyl)-2-thiazolyl)amino)methyl)benzoic acid] is lower in melting point: 216 to 218 °C for the first, 180 to 181 °C for the second.

First: CC(C)N(c1ccc(C(=O)O)cc1)c1nc(-c2nc3ccc(OCc4ccc(Cl)c(Cl)c4)cc3o2)cs1 [Example 183, 4-(N-(4-(6-(3,4-dichlorobenzyloxy)-2-benzooxazolyl)-2-thiazolyl)-N-isopropylamino)benzoic acid]
Second: O=C(O)c1ccc(N(CC2CCCCC2)c2nc(-c3nc4ccc(OCc5ccc(Cl)c(Cl)c5)cc4o3)cs2)cc1 [Example 187, 4-(N-cyclohexylmethyl-N-(4-(6-(3,4-dichlorobenzyloxy)-2-benzooxazolyl)-2-thiazolyl)amino)benzoic acid]
The melting point of the first is higher: 230 °C for the first, 182 to 189 °C for the second.

First: O=C(O)c1ccc(N(CCC2CCCCC2)c2nc(-c3nc4ccc(OCc5ccc(Cl)c(Cl)c5)cc4o3)cs2)cc1 [Example 184, 4-(N-(2-cyclohexylethyl)-N-(4-(6-(3,4-dichlorobenzyloxy)-2-benzooxazolyl)-2-thiazolyl)amino)benzoic acid]
Second: O=C(O)c1ccc(N(CC2CCCCC2)c2nc(-c3nc4ccc(OCc5ccc(F)c(F)c5)cc4o3)cs2)cc1 [Example 190, 4-(N-cyclohexylmethyl-N-(4-(6-(3,4-difluorobenzyloxy)-2-benzooxazolyl)-2-thiazolyl)amino)benzoic acid]
The melting point of the first is lower: 195 to 197 °C for the first, 228 to 230 °C for the second.

First: O=C(O)c1ccc(N(CC2CCCCC2)c2nc(-c3nc4ccc(OCc5ccc(C(F)(F)F)cc5C(F)(F)F)cc4o3)cs2)cc1 [Example 189, 4-(N-(4-(6-(2,4-bis(trifluoromethyl)benzyloxy)-2-benzooxazolyl)-2-thiazolyl)-N-cyclohexylmethylamino)benzoic acid]
Second: COc1cc(COc2ccc3nc(-c4csc(N(CC5CCCCC5)c5ccc(C(=O)O)cc5)n4)oc3c2)cc(OC)c1 [Example 191, 4-(N-cyclohexylmethyl-N-(4-(6-(3,5-dimethoxybenzyloxy)-2-benzooxazolyl)-2-thiazolyl)amino)benzoic acid]
The melting point of the first is higher: 213 to 214 °C for the first, 160 to 162 °C for the second.

First: CN(Cc1ccc([C@H]2CC[C@@H](O)CC2)cc1)c1ccc(-c2csc(N(C)Cc3ccc(C(=O)O)cc3)n2)cc1 [Example 194, cis-4-((N-(4-(4-(N-(4-(4-hydroxycyclohexyl)benzyl)-N-methylamino)phenyl)-2-thiazolyl)-N-methylamino)methyl)benzoic acid]
Second: CN(Cc1ccc(C2CCCC2)cc1)c1ccc(-c2csc(N(C)Cc3ccc(C(=O)O)cc3)n2)cc1 [Example 212, 4-((N-(4-(4-(N-(4-cyclopentylbenzyl)-N-methylamino)phenyl)-2-thiazolyl)-N-methylamino)methyl)benzoic acid]
The melting point of the first is lower: 180 to 181 °C for the first, 181 to 183 °C for the second.

Compared with CN(Cc1ccc(C2CCCC(=O)C2)cc1)c1ccc(-c2csc(N(C)Cc3ccc(C(=O)O)cc3)n2)cc1 (centres unmarked) [Example 207, 4-((N-methyl-N-(4-(4-(N-methyl-N-(4-(3-oxocyclohexyl)benzyl)amino)phenyl)-2-thiazolyl)amino)methyl)benzoic acid], CN(Cc1ccc(C2CCOCC2)cc1)c1ccc(-c2csc(N(C)Cc3ccc(C(=O)O)cc3)n2)cc1 [Example 210, 4-((N-methyl-N-(4-(4-(N-methyl-N-(4-(tetrahydropyran-4-yl)benzyl)amino)phenyl)-2-thiazolyl)amino)methyl)benzoic acid] is higher in melting point: 189 to 191 °C for the first, 225 to 227 °C for the second.

First: CC(=O)N1CCC(c2ccc(CN(C)c3ccc(-c4csc(N(C)Cc5ccc(C(=O)O)cc5)n4)cc3)cc2)CC1 [Example 211, 4-((N-(4-(4-(N-(4-(1-acetylpiperidin-4-yl)benzyl)-N-methylamino)phenyl)-2-thiazolyl)-N-methylamino)methyl)benzoic acid]
Second: CN(Cc1ccc(C2CCC(C)(C)CC2)cc1)c1ccc(-c2csc(N(C)Cc3ccc(C(=O)[O-])cc3)n2)cc1.[Na+] [Example 216, sodium 4-((N-(4-(4-(N-(4-(4,4-dimethylcyclohexyl)benzyl)-N-methylamino)phenyl)-2-thiazolyl)-N-methylamino)methyl)benzoate]
The melting point of the first is lower: 208 to 210 °C for the first, 230 °C for the second.

First: CN(Cc1ccc(C(=O)O)cc1)c1nc(-c2ccc(N(C)C[C@H]3CC[C@H](c4ccccc4)CC3)cc2)cs1 [Example 213, trans-4-((N-methyl-N-(4-(4-(N-methyl-N-(4-phenylcyclohexylmethyl)amino)phenyl)-2-thiazolyl)amino)methyl)benzoic acid]
Second: CN(CCCc1ccccc1)c1ccc(-c2csc(N(C)Cc3ccc(C(=O)O)cc3)n2)cc1 [Example 225, 4-((N-methyl-N-(4-(4-(N-methyl-N-(3-phenylpropyl)amino)phenyl)-2-thiazolyl)amino)methyl)benzoic acid]
The melting point of the first is higher: 191 to 193 °C for the first, 127 to 128 °C for the second.

First: O=C(O)c1ccc(CN(CC2CCCCC2)c2nc(-c3nc4ccc(OCCc5ccccc5)cc4o3)cs2)cc1 [Example 221, 4-((N-cyclohexylmethyl-N-(4-(6-phenethyloxy-2-benzooxazolyl)-2-thiazolyl)amino)methyl)benzoic acid]
Second: CN(Cc1ccc(C(=O)O)cc1)c1nc(-c2ccc3[nH]c(-c4ccc(C5CCCCC5)cc4)nc3c2)cs1 [Example 231, 4-((N-(4-(2-(4-cyclohexylphenyl)-1H-benzoimidazol-5-yl)-2-thiazolyl)-N-methylamino)methyl)benzoic acid]
The melting point of the first is lower: 105 to 108 °C for the first, 250 °C for the second.

First: CN(CCCCc1ccccc1)c1ccc(-c2csc(N(C)Cc3ccc(C(=O)O)cc3)n2)cc1 [Example 222, 4-((N-methyl-N-(4-(4-(N-methyl-N-(4-phenylbutyl)amino)phenyl)-2-thiazolyl)amino)methyl)benzoic acid]
Second: CN(CCC1Cc2ccccc2C1)c1ccc(-c2csc(N(C)Cc3ccc(C(=O)O)cc3)n2)cc1 [Example 223, 4-((N-(4-(4-(N-(2-(2-indanyl)ethyl)-N-methylamino)phenyl)-2-thiazolyl)-N-methylamino)methyl)benzoic acid]
The melting point of the first is lower: 146 to 147 °C for the first, 174 to 176 °C for the second.

First: CN(CCc1ccc(Cl)c(Cl)c1)c1ccc(-c2csc(N(C)Cc3ccc(C(=O)O)cc3)n2)cc1 [Example 224, 4-((N-(4-(4-(N-(2-(3,4-dichlorophenyl)ethyl)-N-methylamino)phenyl)-2-thiazolyl)-N-methylamino)methyl)benzoic acid]
Second: CN(CCc1ccc(C(C)(C)C)cc1)c1ccc(-c2csc(N(C)Cc3ccc(C(=O)O)cc3)n2)cc1 [Example 235, 4-((N-(4-(4-(N-(2-(4-tert-butylphenyl)ethyl)-N-methylamino)phenyl)-2-thiazolyl)-N-methylamino)methyl)benzoic acid]
The melting point of the first is lower: 151 to 152 °C for the first, 162 °C for the second.

First: CN(Cc1ccc(C2CCCCC2)cc1)c1ccc(-c2csc(N(C)Cc3ccc(C(=O)O)cc3)n2)cn1 [Example 226, 4-((N-(4-(6-(N-(4-cyclohexylbenzyl)-N-methylamino)-3-pyridyl)-2-thiazolyl)-N-methylamino)methyl)benzoic acid]
Second: CN(Cc1ccc(C(=O)O)cc1)c1nc(-c2cnc(N(C)Cc3ccc(C4CCCCC4)cc3)c(Cl)c2)cs1 [Example 232, 4-((N-(4-(5-chloro-6-(N-(4-cyclohexylbenzyl)-N-methylamino)-3-pyridyl)-2-thiazolyl)-N-methylamino)methyl)benzoic acid]
The melting point of the first is higher: 157 to 159 °C for the first, 144 to 145 °C for the second.

First: Cc1nc(N(C)Cc2ccc(C3CCCCC3)cc2)sc1-c1csc(N(C)Cc2ccc(C(=O)O)cc2)n1 [Example 227, 4-((N-(2′-(N-(4-cyclohexylbenzyl)-N-methylamino)-4′-methyl-4,5′-bithiazolyl-2-yl)-N-methylamino)methyl)benzoic acid]
Second: CN(Cc1ccc(C2CCCCC2)cc1)c1cc(-c2csc(N(C)Cc3ccc(C(=O)O)cc3)n2)cc(Cl)n1 [Example 228, 4-((N-(4-(2-chloro-6-(N-(4-cyclohexylbenzyl)-N-methylamino)-4-pyridyl)-2-thiazolyl)-N-methylamino)methyl)benzoic acid]
The melting point of the first is higher: 172 to 173 °C for the first, 155 to 157 °C for the second.

Compared with CN(Cc1ccc(CC(C)(C)C)cc1)c1ccc(-c2csc(N(C)Cc3ccc(C(=O)O)cc3)n2)cc1 [Example 229, 4-((N-(4-(4-(N-(4-(2,2-dimethylpropyl)benzyl)-N-methylamino)phenyl)-2-thiazolyl)-N-methylamino)methyl)benzoic acid], CN(Cc1ccc(C(C)(C)C)cc1)c1ccc(-c2csc(N(C)Cc3ccc(C(=O)O)cc3)n2)cc1 [Example 233, 4-((N-(4-(4-(N-(4-tert-butylbenzyl)-N-methylamino)phenyl)-2-thiazolyl)-N-methylamino)methyl)benzoic acid] is lower in melting point: 176 to 177 °C for the first, 166 to 167 °C for the second.

In the case of CC(C)(C)c1ccc(COc2ccc3nc(-c4csc(N(CC5CCCCC5)c5ccc(C(=O)O)cc5)n4)oc3c2)cc1 [Example 188, 4-(N-(4-(6-(4-tert-butylbenzyloxy)-2-benzooxazolyl)-2-thiazolyl)-N-cyclohexylmethylamino)benzoic acid], the melting point was 230 °C (dec.).
For CN(Cc1ccc(C2CCCCC2)cc1)c1ccc(-c2csc(N(C)Cc3cccc(C(=O)O)c3)n2)cc1 [Example 204, 3-((N-(4-(4-(N-(4-cyclohexylbenzyl)-N-methylamino)phenyl)-2-thiazolyl)-N-methylamino)methyl)benzoic acid], the melting point was 183 °C (dec.).

— patent US7163952B2, “Azole compound and medicinal use thereof” (Japan Tobacco Inc., priority 2001, dated 2007)
